Laboratory results as given in US20260232753A1, “COMPOSITION FOR TREATING MACULAR DEGENERATION COMPRISING NOVEL PEPTIDE” (EYEBIOKOREA, INC., priority 2021, published 2026).
In brackets after ≈: the same amount, converted by molar mass. Where a SMILES comes first, the peptide text is derived from it. [ ]: non-standard residue; d: D form. Hyp = O=C(O)[C@@H]1C[C@@H](O)CN1; Tle = CC(C)(C)[C@H](N)C(=O)O; Aib = CC(C)(N)C(=O)O

What was measured:
[1] = Solubility of the peptide in water (Korean Pharmacopoeia method); assay type: physicochemical; details: 20±5° C.; for solubility: within 30 minutes
Description: In order to evaluate the solubility of the peptide of the present invention, an experiment was performed as follows.
The solubility test was conducted based on the Korean Pharmacopoeia method, and the solubility was determined as the degree to which 0.1 g of peptide was dissolved within 30 minutes when added to 10 mL of water and shaken vigorously for 30 seconds every 5 minutes at 20±5° C.

[2] = Stability of the peptide: content analysis by HPLC in aqueous solution under harsh conditions; assay type: physicochemical; details: 40° C., 75% humidity, 7 days
Description: In order to evaluate the stability of the peptide of the present invention, an experiment was performed as follows.
The stability of the peptide was confirmed through content analysis in an aqueous solution at 40° C., 75% humidity, and harsh conditions, and was analyzed using HPLC under the following conditions. • Analysis column: C18 (4.6 Y 250 mm, 5 μm, YMC Hydrosphere) • Analysis wavelength: ultraviolet absorption spectrophotometer (210 nm) • Injection volume/Flow rate: 10 μL/0.8 mL/min • Column temperature: 45° C. • Mobile phase: 0.1 M phosphate buffer methanol mixture (83:17)

Row | SMILES | solubility [1] [mg/mL] | Stability (in words) [2] | Solubility (in words) [1]
1 | CC(C)C[C@H](NC(=O)CNC(=O)[C@H](CCC(=O)O)NC(=O)[C@H](CCC(N)=O)NC(=O)CNC(=O)[C@@H]1C[C@@H](O)CN1)C(=O)N[C@@H](C)C(=O)O [Example 40, Hyp-Gly-Gln-Glu-Gly-Leu-Ala] (H-[Hyp]GQEGLA-OH; N-terminus and C-terminus assumed) | ≥ 330 |  | 
2 | CC(C)C[C@H](NC(=O)[C@@H](NC(=O)[C@H](CCC(=O)O)NC(=O)[C@H](CCC(N)=O)NC(=O)CNC(=O)[C@@H]1C[C@@H](O)CN1)C(C)(C)C)C(=O)N[C@@H](C)C(=O)O [Example 44, Hyp-Gly-Gln-Glu-tert-Leu-Leu-Ala] (H-[Hyp]GQE[Tle]LA-OH; N-terminus and C-terminus assumed) | 100 (≈ 135 mM) |  | 
3 | CC(C)C[C@H](NC(=O)C(C)(C)NC(=O)[C@H](CCC(=O)O)NC(=O)[C@H](CCC(N)=O)NC(=O)CNC(=O)[C@@H]1C[C@@H](O)CN1)C(=O)N[C@@H](C)C(=O)O [Example 43, Hyp-Gly-Gln-Glu-Aib-Leu-Ala] (H-[Hyp]GQE[Aib]LA-OH; N-terminus and C-terminus assumed) | ≥ 500 | most excellent stability | most excellent solubility
